Some test systems named below: IGROV1 ovarian; SNB-19 CNS; UO-31 renal; MDA-MB-231 breast; RXF 393 renal; SK-MEL-28 melanoma; A549 NSCLC; EKVX NSCLC; HOP-92 NSCLC; SK-MEL-2 melanoma.
What all share (assay): inhibition of tumour cell growth, NCI panel, 48 h

Molecules are shown by their SMILES. Where “and” joins values, the source holds several entries; their conditions need not be identical. Identical values can stand only once.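 48-hour exposure; five concentrations; linearly interpolated endpoints. GI50: concentration for 50% inhibition of growth. The concentration for full growth arrest is given as TGI.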

Regarding `COc1ccc(-c2nc(-c3cnccn3)n(C3OC(CO)C(O)C(O)C3O)n2)cc1` (centres undefined), the TGI with IGROV1 ovarian, with SNB-19 CNS, with UO-31 renal, in the assay on MDA-MB-231 breast, in the assay on RXF 393 renal and in the assay with SK-MEL-28 melanoma was more than 100 µM throughout. Besides, the TGI in the assay with A549 NSCLC, with EKVX NSCLC and with HOP-92 NSCLC was more than 100 µM throughout.
On to `CCOC(=O)/C(C#N)=C/N(CC)/N=C/c1ccccc1`, for which the TGI with SK-MEL-2 melanoma, with IGROV1 ovarian, in the assay with SNB-19 CNS, in the assay with UO-31 renal, in the assay on MDA-MB-231 breast and with RXF 393 renal was more than 100 µM each time. The TGI in the assay with SK-MEL-28 melanoma, with A549 NSCLC, in the assay with EKVX NSCLC and with HOP-92 NSCLC was more than 100 µM in each case.
Consider `O=C(/C=C/c1ccco1)c1cccc(C(=O)/C=C/c2ccco2)n1`, for which the TGI in the assay on SK-MEL-2 melanoma was more than 58.6 µM; in the assay on IGROV1 ovarian, 53.5 µM; in the assay on SNB-19 CNS, more than 48.8 µM; with UO-31 renal it was 24.9 µM; in the assay on MDA-MB-231 breast, more than 100 µM; with RXF 393 renal, more than 65.1 µM. For the same compound, the TGI is 67.7 µM in the assay with SK-MEL-28 melanoma, more than 100 µM with A549 NSCLC, more than 100 µM in the assay with EKVX NSCLC and more than 81.9 µM with HOP-92 NSCLC.
As for `CC(C)(C)CC(C)(C)c1ccc(OCCOCC[N+](C)(C)Cc2ccccc2)cc1`, the TGI in the assay with SK-MEL-2 melanoma was 9.71 µM; with SNB-19 CNS, 11.9 µM; in the assay with UO-31 renal it was 45.9 µM and 43 µM; with MDA-MB-231 breast, 2.82 µM; in the assay with RXF 393 renal, 10.3 µM; in the assay on SK-MEL-28 melanoma, 3.68 µM. For the same compound, the TGI in the assay with A549 NSCLC was 32.8 µM; in the assay on EKVX NSCLC it was 16.9 µM; with HOP-92 NSCLC, 2.27 µM and 4.76 µM. Further, the GI50 in the assay with UO-31 renal was 12.4 µM; in the assay on MDA-MB-231 breast it was 1.34 µM; in the assay on HOP-92 NSCLC, 0.94 µM.
For `O=C1CC2(CCNCC2)C(=O)N1N1CCOCC1`, the TGI in the assay with SK-MEL-2 melanoma, with IGROV1 ovarian, in the assay with SNB-19 CNS, in the assay on UO-31 renal, in the assay with MDA-MB-231 breast and in the assay on RXF 393 renal was more than 100 µM each time. The TGI in the assay with SK-MEL-28 melanoma, in the assay with A549 NSCLC, with EKVX NSCLC and in the assay with HOP-92 NSCLC was more than 100 µM throughout.
For the compound `CC(=O)O[C@H]1C(=O)N(c2cc3c4ccccc4ccc3c3ccccc23)[C@@H]1c1ccccc1`, the TGI in the assay on SK-MEL-2 melanoma was 9.4 µM; in the assay on IGROV1 ovarian, 8.27 µM; with SNB-19 CNS, more than 100 µM; with UO-31 renal it was 28 µM; in the assay with MDA-MB-231 breast it was 48.2 µM; in the assay with RXF 393 renal, 8.95 µM. Moreover, the TGI turned out to be 66.4 µM in the assay with SK-MEL-28 melanoma, 61.6 µM with A549 NSCLC, 74.2 µM with EKVX NSCLC and 45.7 µM in the assay on HOP-92 NSCLC.
In the case of `O=CNNC(=O)Nc1ccc(Cl)cc1`, the TGI in the assay on IGROV1 ovarian, in the assay on SNB-19 CNS, in the assay on UO-31 renal, in the assay on MDA-MB-231 breast, in the assay on RXF 393 renal and with SK-MEL-28 melanoma was more than 100 µM in each case. In addition, the TGI in the assay with A549 NSCLC is more than 100 µM; in the assay on EKVX NSCLC, more than 100 µM; with HOP-92 NSCLC, 76.8 µM.
For `O=C(c1ccco1)C1CC(c2ccc3ccccc3c2O)=NN1c1ccc([N+](=O)[O-])cc1[N+](=O)[O-]` (centres undefined), the TGI with SK-MEL-2 melanoma was 97.3 µM; in the assay with IGROV1 ovarian, more than 100 µM; in the assay with UO-31 renal, more than 100 µM; in the assay with MDA-MB-231 breast, 68.7 µM; with RXF 393 renal, more than 100 µM; with SK-MEL-28 melanoma it was more than 100 µM. In addition, the TGI with A549 NSCLC was more than 100 µM; in the assay with HOP-92 NSCLC it was 76.1 µM.
Consider `CC(C)(C)c1c(C(C)(C)C)c(=O)c1=O`, for which the TGI in the assay with SK-MEL-2 melanoma, with SNB-19 CNS, with UO-31 renal, with MDA-MB-231 breast, with RXF 393 renal and in the assay on SK-MEL-28 melanoma was more than 100 µM in each case. For the same compound, the TGI with A549 NSCLC, in the assay on EKVX NSCLC and with HOP-92 NSCLC was more than 100 µM each time.
In the case of `O=S1(=O)CCN(c2ccccc2CC(c2c[nH]c3ccccc23)c2c[nH]c3ccccc23)CC1`, the TGI is 21.1 µM in the assay with SK-MEL-2 melanoma; 33.4 µM in the assay with IGROV1 ovarian; more than 100 µM with SNB-19 CNS; 72 µM in the assay on UO-31 renal; 25.1 µM in the assay on MDA-MB-231 breast; 28.8 µM with RXF 393 renal. The TGI in the assay on SK-MEL-28 melanoma was 28.8 µM; in the assay with A549 NSCLC it was more than 78.2 µM; in the assay with EKVX NSCLC it was 55.7 µM; with HOP-92 NSCLC, 25.3 µM.
Take `COC(=O)c1ccc(/C=C2\CCc3ccccc3C2=O)cc1`: the TGI in the assay on IGROV1 ovarian, in the assay with SNB-19 CNS, with UO-31 renal, with MDA-MB-231 breast, in the assay on RXF 393 renal and in the assay with SK-MEL-28 melanoma was more than 100 µM each time. Moreover, the TGI with A549 NSCLC, in the assay with EKVX NSCLC and in the assay with HOP-92 NSCLC was more than 100 µM each time.
In the case of `CC12CC(C/C1=N/O)C(C)(C)C2` (centres undefined), the TGI in the assay on IGROV1 ovarian, in the assay with SNB-19 CNS, with UO-31 renal, in the assay on MDA-MB-231 breast, in the assay on RXF 393 renal and with SK-MEL-28 melanoma was more than 100 µM in each case. Also, the TGI in the assay with A549 NSCLC, in the assay on EKVX NSCLC and in the assay on HOP-92 NSCLC was more than 100 µM each time.
`[N-]=[N+]=C(C(=O)C(=[N+]=[N-])C(=O)c1ccccc1)C(=O)c1ccccc1`: the TGI in the assay on SK-MEL-2 melanoma, in the assay on IGROV1 ovarian, with SNB-19 CNS, with UO-31 renal, in the assay with MDA-MB-231 breast and in the assay on RXF 393 renal was more than 100 µM each time. For the same compound, the TGI in the assay on SK-MEL-28 melanoma, in the assay with A549 NSCLC and in the assay with EKVX NSCLC was more than 100 µM in each case.
`COc1ccc(/C=C2\CCC(CNc3ccc(Br)cc3)C2=O)cc1` (centres undefined): the TGI in the assay on IGROV1 ovarian, in the assay on SNB-19 CNS, in the assay on UO-31 renal, in the assay on MDA-MB-231 breast, in the assay on RXF 393 renal and in the assay on SK-MEL-28 melanoma was more than 100 µM in each case. Besides, the TGI with A549 NSCLC, in the assay with EKVX NSCLC and in the assay with HOP-92 NSCLC was more than 100 µM in each case.
For the compound `O=C1/C(=C\c2cccc(Oc3ccccc3)c2)SC(c2ccccc2)N1c1cccc([N+](=O)[O-])c1` (centres undefined), the TGI in the assay with SK-MEL-2 melanoma, with SNB-19 CNS, in the assay on UO-31 renal, with MDA-MB-231 breast, in the assay with RXF 393 renal and in the assay on SK-MEL-28 melanoma was more than 100 µM each time. Also, the TGI with A549 NSCLC, in the assay on EKVX NSCLC and with HOP-92 NSCLC was more than 100 µM throughout.
With `Oc1[nH]c2ccccc2c1/C=c1/cc2c(c(-c3ccc(C(F)(F)F)cc3)n1)=Nc1ccccc1-2`, the GI50 is 8.66 µM in the assay with SK-MEL-2 melanoma; 8.25 µM in the assay with IGROV1 ovarian; 6.81 µM in the assay with SNB-19 CNS; 2.55 µM in the assay on UO-31 renal; 1.89 µM in the assay with MDA-MB-231 breast; 3.08 µM in the assay on RXF 393 renal. The GI50 in the assay with SK-MEL-28 melanoma was 1.84 µM; with A549 NSCLC, 4.79 µM; with EKVX NSCLC, 10.5 µM. Also, the TGI in the assay on SK-MEL-2 melanoma was 28.7 µM; in the assay with IGROV1 ovarian, 28.8 µM; in the assay on SNB-19 CNS it was more than 100 µM; in the assay on UO-31 renal, 20.7 µM; with MDA-MB-231 breast, 13.9 µM; in the assay on RXF 393 renal, 15.3 µM. Moreover, the values for the TGI in the assay with SK-MEL-28 melanoma, with A549 NSCLC and in the assay on EKVX NSCLC were 18.8 µM, 28.8 µM and more than 100 µM, respectively.
As to `COc1ccc(C2=C(OC(=O)N(C)C)c3cccn3-c3cc(Cl)ccc3S2)cc1`, the TGI with IGROV1 ovarian, in the assay with MDA-MB-231 breast, with RXF 393 renal, with SK-MEL-28 melanoma, in the assay on A549 NSCLC and with EKVX NSCLC was more than 10 µM in each case. This compound also had a TGI in the assay on HOP-92 NSCLC of more than 10 µM.
Consider `CC(C)CCCC(C)[C@H]1CC[C@H]2N=C(Nc3ccccc3)CCC[C@]12C` (some centres undefined), for which the TGI was 3.2 µM with SK-MEL-2 melanoma; 3.34 µM in the assay on IGROV1 ovarian; 17.1 µM in the assay with SNB-19 CNS; 3.12 µM in the assay on UO-31 renal; 3.04 µM with MDA-MB-231 breast; 2.98 µM with RXF 393 renal. Besides, the TGI in the assay on SK-MEL-28 melanoma came to 3.89 µM; with A549 NSCLC, 14.5 µM; in the assay on HOP-92 NSCLC it was 9.42 µM.
With `Cc1cn([C@H]2[C@@H](CO)C[C@H]2O)c(=O)[nH]c1=O`, the TGI with SK-MEL-2 melanoma, in the assay on IGROV1 ovarian, in the assay on UO-31 renal, with MDA-MB-231 breast, with RXF 393 renal and in the assay on SK-MEL-28 melanoma was more than 100 µM throughout. The TGI with A549 NSCLC, in the assay on EKVX NSCLC and in the assay on HOP-92 NSCLC was more than 100 µM throughout.
Regarding `O=C(CSc1nc2ccc(I)cc2c(=O)n1Cc1ccccc1)NN1C(=O)CCC1=O`, the TGI in the assay with SK-MEL-2 melanoma was more than 100 µM; in the assay on IGROV1 ovarian it was 90.9 µM; in the assay on SNB-19 CNS it was more than 100 µM; in the assay with MDA-MB-231 breast it was more than 100 µM; in the assay on RXF 393 renal, 62.5 µM; in the assay on SK-MEL-28 melanoma, more than 100 µM. Further, the TGI with A549 NSCLC is more than 100 µM; with EKVX NSCLC, more than 100 µM; with HOP-92 NSCLC, 64.7 µM.

(Values after PubChem BioAssay (NCI).)
